Measured values reported in patent US11117930B2, “Peptide inhibitors of transcription factor aggregation” (ADRX, INC., priority 2017, dated 2021).
Read-outs that look alike come from different tables or passages of the source. Non-standard residues stand in square brackets, D forms with d. Residues, ends and D or L forms follow the SMILES beside them. No end group written: not given here. NMeI = CC[C@H](C)[C@H](NC)C(=O)O

How the values were obtained:
[1] = biological target: Nat1 (LTIITLE (SEQ ID NO: 225)) (Homo sapiens, UniProt P04637); test: Thioflavin T aggregation assay (Nat1); assay type: biochemical; conditions: ThT fluorescence, 50 μM Nat1, pH6.0, room temperature, 2 hours
Method: (§1) The peptides of the invention were tested in an in vitro Thiofiavin T aggregation assay [see WO2014/182961]. An increase in Thioflavin T fluorescence is detected over time due to the formation of increasing amounts of amyloid to which the dye can specifically bind. […] For the Nat1 Stock Solution, Nat (LTIITLE (SEQ ID NO: 225), >95% Pure, TFA salt) is dissolved at 8 mM in 25 mM NaOH solution and kept at −80° C. Prior to the assay, it is diluted to 1 mM in H2O. The 2× Reaction Buffer is prepared with 200 mM Sodium Phosphate, pH6.0, 500 mM Sodium Chloride and 200 μM Thioflavin T (ThT). 100 μL of 2× reaction buffer and 80 μL of H2O are added to each well in black, clear-bottomed 96-well plate. Inhibitor peptides are dissolved in H2O to appropriate concentrations to produce 6-points dose response curves. 10 μL of dissolved peptide or H2O (control) is added to each reaction well. 10 μL of 1 mM Nat1 peptide is added to each reaction well (a final concentration of 50 μM). ThT fluorescence is monitored at room temperature every minute for 2 hours with excitation and emission wavelengths of 440 and 485 nm, respectively. IC50 values are calculated using Graphpad Prism.

[2] = biological target: p63 [RPILIIVTLE—SEQ ID NO: 226] (Homo sapiens, UniProt Q9H3D4); test: Thioflavin T aggregation assay, p63 amyloidogenic region; assay type: biochemical; parameters: dose or concentration left out as unconfirmed; conditions: inhibitors added in solution; FIG. 2(a)
Description: (§2) FIGS. 1(a) and 1(b) show the aggregation of p63 and p73 amyloidogenic regions, respectively. The aggregation of the p63 and p73 sequences are monitored via Thioflavin T assay: an increase in Thioflavin T fluorescence is detected over time due to the formation of increasing amounts of amyloid to which the dye can specifically bind.
(§3) FIGS. 2(a) and 2(b) show the in vitro inhibition of p63 and p73 aggregation by several inhibitors. The aggregation is monitored via Thioflavin T assay. […] The baseline of no inhibitor is the line with squares.
The peptides are tested for p63 binding and p73 binding in an in vitro Thiofiavin T aggregation assay. […] The addition of the 50 μM solutions of p63 and p73 peptides to the reaction Buffer described in Example 3, forms amyloid (FIG. 1(a) and FIG. 1(b)). An increase in Thioflavin T fluorescence is detected over time due to the formation of increasing amounts of amyloid to which the dye can specifically bind. […] For the Nat1 Stock Solution, Nat1 (LTIITLE (SEQ ID NO: 225), >95% Pure, TFA salt) is dissolved at 8 mM in 25 mM NaOH solution and kept at −80° C. Prior to the assay, it is diluted to 1 mM in H2O. […] ThT fluorescence is monitored at room temperature every minute for 2 hours with excitation and emission wavelengths of 440 and 485 nm, respectively. […]

[3] = biological target: p73 [RPILIIITLE—SEQ ID NO: 227] (Homo sapiens, UniProt O15350); test: Thioflavin T aggregation assay, p73 amyloidogenic region; assay type: biochemical; parameters: dose or concentration left out as unconfirmed; conditions: inhibitors added in solution; FIG. 2(b)
Description: as §2, §3
as §1, with “An” for “The peptides of the invention were tested in an in vitro Thiofiavin T aggregation assay [see WO2014/182961]. An”, “Solution, Nat1” for “Solution, Nat”, “curves. […]” for “curves. 10 μL of dissolved peptide or H2O (control) is added to each reaction well. 10 μL of 1 mM Nat1 peptide is added to each reaction well (a final concentration of 50 μM).”, “respectively. […]” for “respectively. IC50 values are calculated using Graphpad Prism.”

[4] = Protein binding in human serum; assay type: in vitro ADME; conditions: CPP linked peptides
[5] = Stability in human serum; assay type: in vitro ADME; conditions: CPP linked peptides, read-out: Stability in Human Serum (t1/2)
[6] = test system: Detroit-562; assay type: cell-based; conditions: 24 h
Method: (§4) To render the inhibitors cell permeable, the peptides are fused to either a nine-residue poly L-Arg tag or a nine-residue poly D-Arg tag, through one of several three-residue linkers, either L-RPI, D-RPI, or D-GGG. Cancer cell lines, e.g. OVCAR-3, and Detroit 562 are treated with the peptide conjugates for 24 hours by the following method. OVCAR3 and Detroit-562 cells are grown in ATCC recommended growth media. The peptides were made in a 4 mM stock. Cells are plated in 96-well flat bottom clear plates at 7000 cells/well. After 24 hours, compounds are serially diluted in one-third [starting at 33 μM] or one-half [starting at 30 μM] dilutions in PrEGM media (Lonza). Growth media was removed from the wells and compound in PrEGM was added to 100 ul final volume. 24 hours post-compound addition cell metabolism was measured by addition of 20 μl MTS solution (Promega, cell-titer 96 aqueous). Absorbance was read at 490 nm following a 2 hour incubation and data was processed in Prism Graphpad to generate EC50 values.

[7] = test system: OVCAR3; assay type: cell-based; conditions: 24 h
Method: as §4

Molecule	IC50 [1]	in vitro inhibition of p63 aggregation [2]	in vitro inhibition of p73 aggregation [3]	fraction unbound [4]	half-life ([5]; cells given in hr)	EC50 [6]	EC50 [7]	half-life [5]
CC[C@H](C)[C@@H](C(=O)N[C@@H](CCCCN)C(=O)N[C@@H](Cc1ccc(O)cc1)C(=O)N[C@@H](Cc1c[nH]cn1)C(=O)N[C@@H](CCCNC(=N)N)C(=O)O)N(C)C(=O)[C@H](CCCNC(=N)N)NC(=O)[C@@H](N)CC(C)C [LR(N-Me)IKYHR] (H-LR[NMeI]KYHR-OH; N-terminus and C-terminus assumed)	334 nM	–	–	–	–	–	–	–
N=C(N)NCCC[C@@H](N)C(=O)N[C@H](Cc1ccccc1)C(=O)N[C@H](Cc1ccc(O)cc1)C(=O)N[C@H](Cc1ccc(O)cc1)C(=O)N[C@H](Cc1c[nH]cn1)C(=O)N[C@H](CCCNC(=N)N)C(=O)N[C@H](CCCNC(=N)N)C(=O)O [rfyyhrr] (H-[dR][dF][dY][dY][dH][dR][dR]-OH; N-terminus and C-terminus assumed)	–	delay the aggregation onset and lower the total amount of aggregates present	delay the aggregation onset and lower the total amount of aggregates present	–	–	–	–	–
CC[C@@H](C)[C@@H](NC(=O)[C@H]1CCCN1C(=O)[C@@H](CCCNC(=N)N)NC(=O)[C@@H](CCCNC(=N)N)NC(=O)[C@@H](CCCNC(=N)N)NC(=O)[C@@H](CCCNC(=N)N)NC(=O)[C@@H](CCCNC(=N)N)NC(=O)[C@@H](CCCNC(=N)N)NC(=O)[C@@H](CCCNC(=N)N)NC(=O)[C@@H](CCCNC(=N)N)NC(=O)[C@@H](CCCNC(=N)N)NC(=O)[C@H](N)CCCNC(=N)N)C(=O)N[C@H](CCCNC(=N)N)C(=O)N[C@@H](C(=O)N[C@H](Cc1c[nH]cn1)C(=O)N[C@H](Cc1ccc(O)cc1)C(=O)N[C@H](Cc1ccccc1)C(=O)N[C@H](CCCNC(=N)N)C(=O)N[C@H](CCCNC(=N)N)C(=O)O)[C@H](C)CC [rrrrrrrrrrpirihyfrr] (H-[dR][dR][dR][dR][dR][dR][dR][dR][dR][dR][dP][dI][dR][dI][dH][dY][dF][dR][dR]-OH; N-terminus and C-terminus assumed)	–	–	–	0.07	> 1440 min	5 µM	4 µM	–
CC[C@@H](C)[C@@H](NC(=O)[C@H]1CCCN1C(=O)[C@@H](CCCNC(=N)N)NC(=O)[C@@H](CCCNC(=N)N)NC(=O)[C@@H](CCCNC(=N)N)NC(=O)[C@@H](CCCNC(=N)N)NC(=O)[C@@H](CCCNC(=N)N)NC(=O)[C@@H](CCCNC(=N)N)NC(=O)[C@@H](CCCNC(=N)N)NC(=O)[C@@H](CCCNC(=N)N)NC(=O)[C@@H](CCCNC(=N)N)NC(=O)[C@H](N)CCCNC(=N)N)C(=O)N[C@H](Cc1ccc(O)cc1)C(=O)N[C@H](CCC(N)=O)C(=O)N[C@H](Cc1c[nH]c2ccccc12)C(=O)N[C@H](Cc1ccc(O)cc1)C(=O)N[C@H](CCCNC(=N)N)C(=O)N[C@H](Cc1c[nH]c2ccccc12)C(=O)N[C@H](CCC(N)=O)C(=O)O [rrrrrrrrrrpiyqwyrwq] (H-[dR][dR][dR][dR][dR][dR][dR][dR][dR][dR][dP][dI][dY][dQ][dW][dY][dR][dW][dQ]-OH)	–	–	–	0.01	> 1440 min	5 µM	6 µM	–
Ac-IRIRRYR-NH2 [Ac-IRIRRYR-NH2]	69 nM	–	–	–	–	–	–	–
LLIKYHR [LLIKYHR]	–	delay the aggregation onset and lower the total amount of aggregates present	delay the aggregation onset and lower the total amount of aggregates present	–	–	–	–	–
PRRRRRRRRRRPIIRIRHYRP	–	–	–	0.11	–	12 µM	10 µM	116 min
PRRRRRRRRRRPILRIRYWKP	–	–	–	0.02	–	5 µM	5 µM	200 min
PRRRRRRRRRRPITRIRFYRP	–	–	–	0.11	–	9 µM	8 µM	103 min
RRRRRRRRRRPIIRIRHYP [RRRRRRRRRRPIIRIRHYP]	–	–	–	0.17	–	7 µM	6 µM	295 min
RRRRRRRRRRPIIRIRHYR [RRRRRRRRRRPIIRIRHYR]	–	–	–	0.16	–	6 µM	6 µM	30 min
RRRRRRRRRRPIIRIRHYRP	–	–	–	0.19	–	7 µM	7 µM	124 min
RRRRRRRRRRPILTRITLE [RRRRRRRRRRPILTRITLE, reference compound]	–	–	–	0.34	–	9 µM	8 µM	339 min
